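Results reflect a 48-hour exposure of cells in 96-well plates to compound at five concentrations. GI50 is the concentration that inhibits growth by half. TGI is the concentration that stops growth completely.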
Columns and labels:
Assay in all cases: growth of human tumour cells (NCI), 48 h
[1] = system: HCT-15 colon
[2] = system: K-562 leukemia
[3] = system: MOLT-4 leukemia
[4] = system: A549 NSCLC
[5] = system: MCF7 breast
[6] = system: SF-268 CNS
[7] = system: UO-31 renal
[8] = system: LOX IMVI melanoma
[9] = system: A498 renal
[10] = system: HS 578T breast
[11] = system: MDA-MB-468 breast
[12] = system: HOP-92 NSCLC
[13] = system: RXF 393 renal
[14] = system: OVCAR-3 ovarian
[15] = system: MDA-MB-231 breast
[16] = system: CCRF-CEM leukemia
[17] = system: SF-295 CNS
[18] = system: MDA-MB-435
[19] = system: CAKI-1 renal
[20] = system: HOP-62 NSCLC
[21] = system: DU-145 prostate
[22] = system: KM12 colon
[23] = system: HCC-2998 colon
[24] = system: T-47D breast
[25] = system: SK-MEL-5 melanoma
[26] = system: COLO 205 colon
[27] = system: OVCAR-4 ovarian
[28] = system: SNB-75 CNS
[29] = system: SK-MEL-28 melanoma
[30] = system: SW-620 colon
[31] = system: NCI-H226 lung
[32] = system: BT-549 breast
[33] = system: UACC-62 melanoma
[34] = system: NCI/ADR-RES ovarian
[35] = system: RPMI-8226 leukemia
[36] = system: NCI-H23 lung
[37] = system: TK-10 renal
[38] = system: U251 CNS
[39] = system: PC-3 prostate
[40] = system: UACC-257 melanoma
[41] = system: HCT-116 colon
[42] = system: ACHN renal
[43] = system: SR leukemia
[44] = system: NCI-H522 lung
[45] = system: SK-OV-3 ovarian
[46] = system: MALME-3M melanoma
[47] = system: SF-539 CNS
[48] = system: IGROV1 ovarian
[49] = system: SK-MEL-2 melanoma
[50] = system: HL-60(TB) leukemia
[51] = system: HT29 colon
[52] = system: OVCAR-8 ovarian
[53] = system: SNB-19 CNS
[54] = system: SN12C renal
[55] = system: OVCAR-5 ovarian
[56] = system: EKVX NSCLC
[57] = system: 786-0 renal
[58] = system: NCI-H460 lung
[59] = system: M14 melanoma

Work on `Cc1ccc(-c2cc(C(=O)N=Nc3c(O)[nH]c4ccccc34)c3ccccc3n2)cc1` yielded a GI50 [1] of 3.87 µM, a TGI [1] of 17.9 µM and a GI50 [2] of 3.19 µM. It also gave a TGI [2] of over 100 µM, a GI50 [3] of 4.23 µM and a TGI [3] of 38.5 µM. The GI50 [4] was 3.99 µM, the TGI [4] was 22 µM and the GI50 [5] was 4.39 µM. It also gave a TGI [5] of 33.4 µM, a GI50 [6] of 12.8 µM and a TGI [6] of over 100 µM. The GI50 [7] was 10.7 µM, the TGI [7] was 22.6 µM and the GI50 [8] was 3.63 µM. The TGI [8] was 15.8 µM, the GI50 [9] was 19.3 µM and the TGI [9] was 39.8 µM. For the same compound, the GI50 [10] was 4.84 µM, the TGI [10] was 88.9 µM and the GI50 [11] was 3.41 µM. It also gave a TGI [11] of 15.4 µM, a GI50 [12] of 11.2 µM and a TGI [12] of 36.4 µM. The GI50 [13] was 1.88 µM, the TGI [13] was 6.11 µM and the GI50 [14] was 5.2 µM. It also gave a TGI [14] of 25 µM, a GI50 [15] of 2.39 µM and a TGI [15] of 6.41 µM. It also gave a GI50 [16] of 4.73 µM, a TGI [16] of over 100 µM and a GI50 [17] of 13.3 µM. The TGI [17] was 28.5 µM, the GI50 [18] was 3 µM and the TGI [18] was 11.5 µM. It also gave a GI50 [19] of 4.56 µM, a TGI [19] of 21.5 µM and a GI50 [20] of 13.5 µM. The TGI [20] was 29.1 µM, the GI50 [21] was 5.48 µM and the TGI [21] was 37.6 µM. For the same compound, the GI50 [22] was 5.84 µM, the TGI [22] was 73.4 µM and the GI50 [23] was 3.84 µM. The TGI [23] was 15.3 µM, the GI50 [24] was 5.38 µM and the TGI [24] was 47.3 µM. It also gave a GI50 [25] of 5.66 µM, a TGI [25] of 20 µM and a GI50 [26] of 15.4 µM. It also gave a TGI [26] of 37.9 µM, a GI50 [27] of 3.43 µM and a TGI [27] of 26.6 µM. For the same compound, the GI50 [28] was 2.54 µM, the TGI [28] was 17.3 µM and the GI50 [29] was 11.9 µM. It also gave a TGI [29] of 26.6 µM, a GI50 [30] of 6.07 µM and a TGI [30] of 34 µM. For the same compound, the GI50 [31] was 10.6 µM, the TGI [31] was 28.6 µM and the GI50 [32] was 3.09 µM. The TGI [32] was 18 µM, the GI50 [33] was 12.7 µM and the TGI [33] was 32.1 µM. The GI50 [34] was 2.24 µM, the TGI [34] was 6.11 µM and the GI50 [35] was 5.34 µM. For the same compound, the TGI [35] was over 100 µM, the GI50 [36] was 4.67 µM and the TGI [36] was 26.1 µM. For the same compound, the GI50 [37] was 20.6 µM, the TGI [37] was 40.9 µM and the GI50 [38] was 3.02 µM. For the same compound, the TGI [38] was 10.7 µM, the GI50 [39] was 17.2 µM and the TGI [39] was over 100 µM. The GI50 [40] was 14.3 µM, the TGI [40] was 32.2 µM and the GI50 [41] was 1.97 µM. For the same compound, the TGI [41] was 4.46 µM, the GI50 [42] was 10.3 µM and the TGI [42] was 22.2 µM. The GI50 [43] was 2.38 µM, the TGI [43] was over 100 µM and the GI50 [44] was 9.85 µM. It also gave a TGI [44] of 25.6 µM, a GI50 [45] of 18.1 µM and a TGI [45] of 36.4 µM. For the same compound, the GI50 [46] was 6.38 µM, the TGI [46] was 21.1 µM and the GI50 [47] was 3.27 µM. For the same compound, the TGI [47] was 11.3 µM, the GI50 [48] was 5.89 µM and the TGI [48] was 23.1 µM. For the same compound, the GI50 [49] was 23.9 µM, the TGI [49] was 60.4 µM and the GI50 [50] was 6.54 µM. The TGI [50] was 43.9 µM, the GI50 [51] was 7.14 µM and the TGI [51] was 25.8 µM. It also gave a GI50 [52] of 2.84 µM, a TGI [52] of 9.15 µM and a GI50 [53] of 10.6 µM. It also gave a TGI [53] of 48.5 µM, a GI50 [54] of 3.15 µM and a TGI [54] of 14.5 µM. It also gave a GI50 [55] of 8.67 µM, a TGI [55] of 26.7 µM and a GI50 [56] of 6.08 µM. It also gave a TGI [56] of 30.4 µM, a GI50 [57] of 2.87 µM and a TGI [57] of 9.8 µM. For the same compound, the GI50 [58] was 2.87 µM, the TGI [58] was 8.25 µM and the GI50 [59] was 7.76 µM. For the same compound, the TGI [59] was 27.8 µM.
